Data from patent US20160186066A1, “METHODS AND SYSTEMS FOR PROCESSING CELLULOSIC BIOMASS” (priority 2014, published 2016).
Where two headings read alike, the source gives them in different places.

Tests used:
[1] = MIBC re-extraction (step #2) of layer from initial MIBC extraction (Example 4); format: physicochemical
Method: One part of the upper organic-rich upper layer from Example 3 was removed prior to distillation, extracted with one part by weight of MIBC solvent, by shaking for 3 minutes in a vial via mechanical shaker, followed by allowing to phase separate overnight at 25° C.
Extraction efficiency as measured by the partition coefficient K increased with increasing carbon number for the light alcohol. Glycols EG and PG were not extracted.

[2] = Solubility of MPP in deionized water (turbidity); format: physicochemical; conditions: 1 wt % solution, room temperature
[3] = Extraction of phenols from 1% aqueous solution with toluene or heptane (Examples 5E-5H); conditions: for amount remaining in / lost to the aqueous phase: Ex 5F, 1% MPP in water extracted with heptane; for amount left in / lost to the aqueous layer: Ex 5G, 1% m-cresol solution extracted with toluene
[4] = Comparison of extraction solvents on simulated aqueous reaction product mixture (Examples 5A-5D)
Method: (§1) The reaction product mixture was extracted with one part of by weight solvent, with mixing for a minimum of three minutes, followed by phase separation overnight at 25° C.

[5] = 3 min
Method: as §1

**Q.** For `OCCO` [EG, ethylene glycol], which “Extr #2 % extract” value [1] is on record?
**A.** not extracted

**Q.** Which “solubility in deionized water (turbidity)” value [2] does the source give for `CCCc1ccc(O)c(OC)c1` [MPP, 2-methoxy-4-propylphenol] here?
**A.** only partial solubility

**Q.** And the “partition coefficient, weight percent in organic layer extract vs. lower layer aqueous fraction” value ([3]; Ex 5E, 1 wt % MPP in water extracted with one part toluene)?
**A.** 161.7

**Q.** What about the “amount remaining in / lost to the aqueous phase” value [3] of the same molecule?
**A.** 0.08 wt %

**Q.** What about the “partition coefficient for distribution of extraction solvent between organic and aqueous layers” value ([4]; Ex 5B, MPP as extraction solvent) of the same molecule?
**A.** 612

**Q.** And the “oil/water partition coefficient of extraction solvent components” value ([4]; Ex 5C, MPP/MIBC mixture as extraction solvent)?
**A.** 462

**Q.** With `CC(O)CO` (stereo not drawn) [PG, 1,2-propylene glycol] as the molecule, how does the “Extr #2 % extract” value [1] read?
**A.** not extracted

**Q.** Which “amount left in / lost to the aqueous layer” value [3] does the source give for `Cc1cccc(O)c1` [cresol, meta-cresol] here?
**A.** 0.05 wt %

**Q.** For `CC(C)CC(C)O` (stereo not drawn) [MIBC, methylisobutylcarbinol], which “oil/water partition coefficient of extraction solvent components” value [5] is on record?
**A.** 48

**Q.** What does the source list for `CCCCCCC` [heptane]?
**A.** amount remaining in / lost to the aqueous phase [3]: 0.07 wt %; lost to the aqueous layer ([3]; Ex 5H, 1% m-cresol solution extracted with heptane): 0.015%

**Q.** For `Cc1ccccc1` [toluene], which “amount left in / lost to the aqueous layer” value [3] is on record?
**A.** 0.04 wt %
